{"source": "paper PMC2862740", "about": "“Furin Targeted Drug Delivery for Treatment of Rhabdomyosarcoma in a Mouse Model” (PLoS ONE, 2010)", "key": {"RD cells [1]": {"test_system": "RD cells", "assay": "competition of phage RMS-P3 binding by synthetic peptide", "assay_type": "cell-based", "details": "for regression slope b of phage RMS-P3 binding versus peptide concentration: least-squares regression, N = 18, RMS-P3 r^2 = 0.889, p<0.0001, control r^2 = 0.0002, p = 0.959", "experimental": "Figure 1 Validation of selected phages binding on RMS cells in vivo and in vitro. (A) Quantification of binding of single phage clones to different cell lines. Six phages selected from in vitro and in vivo screenings were validated individually in binding assays to three RMS cell lines (embryonal RMS: RD; alveolar RMS: Rh30 and Rh4) as well as to normal myoblasts (SkMC-c) and fibroblast cells (MRC-5). Phage clones are ordered according to the frequency of occurrence. Binding was calculated over non-recombinant T7, depicted are mean values ± SD of three independent experiments. (B) RMS-P3 and RMS-P6 phage distribution in RD mouse xenografts. Homing of phages to tumor was compared to control organs. Binding was normalized over phage T7 and tissue weight. Mean values ± SD of four independent experiments are shown. Numerical values for tumor to organ ratios are indicated above the bars. (C) Validation of RMS-P3 peptide sequence by competition of phage binding. 10^6 RD cells were incubated for 30 min with increasing concentrations of RMS-P3 peptide ([…]) or control peptide ([…]). Then, phages (10^9 pfu) were added for 1 h. Phage binding was normalized over non-recombinant T7. Data are presented as percentage of maximal phage binding obtained in the absence of synthetic peptide. Error bars indicate mean ± SD from three independent experiments. […] TEXT PRINTED IN THE PICTURE: (B) RMS-P6: tumor: 1; muscle: 1/6; kidney: 1/8; brain: 1/28; skin: 1/12 | (B) RMS-P3: tumor: 1; muscle: 1/24; kidney: 1/15; brain: 1/12; skin: 1/10 DOUBTS OF THE COPYIST ABOUT THIS PICTURE: Panel B: the picture prints no measure for the numbers over the bars. Each tissue name was assigned from the bar fill and the order of the printed key. / RMS-P6, brain: 1/28, the last digit may be 8 or 6 (small print)\n(§1) 10^6 RD cells were detached (2.5 mM EDTA-PBS) and reconstituted (DMEM/1% BSA). Cells were preincubated with 100 µl of peptides (RMS-P3 or RMS-Pctrl) or general PC inhibitor decanoyl-Arg-Val-Lys-Arg-chloromethylketone (Dec-RVKR-cmk, Calbiochem, Switzerland) for 30 minutes. Phages (10^9 pfu) were added for 1 hour at RT under continuous rotation. Cells were washed four times with DMEM/1% BSA; titer of bound phage was determined by titration with BLT5403 and calculated over non-recombinant T7."}, "RD xenografts": {"test_system": "RD xenografts", "assay": "targeted doxorubicin treatment of RD xenografts", "method": "Five groups of 6 mice were treated when tumors reached 60 mm^3 in size. Treatment consisted of weekly tail vein injections for 30 days.\nCD1-Nu/nu mice (4 to 6 weeks old, Charles River, Germany) were used for the in vivo screening, and 6 weeks old NOD/SCID IL2R γ-/- mice were used for all other studies. RMS cells (5×10^6 in 150 µl HBSS) were injected subcutaneously into the dorsolateral flank of the mice. Both diameters (d) of the spherical tumors were measured twice weekly and the volume was calculated with the general formula V = (4/3) πr^3, whereby r = (d1+d2)/4. Prior to the experiment, mice were anesthetized with 0.015 ml/g avertin by i.p. injection. 1 mg/ml of FITC-peptide in 250 µl PBS was injected by tail vein injection into mice bearing tumors 150 mm^3 in size. After 10 minutes circulation, mice were perfused, tumor and control organs were dissected and frozen in O.C.T. embedding medium (Leica Microsystems, Germany). 10 µm cryosections were washed with PBS, fixed for 15 minutes in ice-cold methanol and air-dried. Endothelial stainings were performed using rat monoclonal antibodies against mouse markers CD31 and MECA-32, both at the dilution of 1∶50 (BD biosciences, Switzerland). A rabbit polyclonal anti-furin-antibody (Abcam) was used at a dilution of 1∶1500. All corresponding secondary antibodies were AlexaFluor594-labeled IgGs (1∶300, Invitrogen).\nMice with size-matched tumors (∼60 mm^3) were randomized into five groups and injected once per week for 4 consecutive weeks. […] Control groups received either a mixture of 10 µg free doxorubicin and peptide RMS-P3/RR, an equimolar solution of peptide RMS-P-3/RR alone or PBS alone. Concentrations were confirmed by measuring the absorbance of conjugated doxorubicin at 490 nm. […] Mice were monitored for weight and tumor growth for 30 days."}, "[2]": {"test_system": "RD xenograft tumors and control organs", "assay": "FITC-peptide distribution in xenograft mice", "assay_type": "in vivo, mouse", "details": "RD xenografts, i.v.", "experimental": "Figure 2 FITC-labeled RMS-P3 binding in vitro and distribution in vivo. (A) Visualization of FITC-RMS-P3 peptide binding in normal and cancer cells in vitro. Cultured myoblasts (SkMC-c), fibroblasts (MRC-5), RMS cells (RD) and breast carcinoma cells (MDA-MB 231) were incubated with 100 nM FITC-RMS-P3 peptide for 1 h at 37°C. Fluorescence microscopy of fixed cells is shown. (B) Living RD cells were incubated with FITC-RMS-P3 peptide, subsequently fixed and stained with giantin (red). Colocalization is shown in the merged picture by yellow. Blue staining (DAPI) indicates the nuclei. Magnifications: 40x, scale bars: 20 µm. (C) Distribution of FITC-RMS-P3 and control peptide FITC-RMS-Pctrl in mice xenografts of RD cells. FITC-RMS-P3 or control FITC-RMS-Pctrl peptide were injected i.v. and after 10 minutes of circulation, mice were perfused and tumor and control organs were collected. Cryosections were double-labeled with mouse endothelial vessels markers CD31 and MECA-32 (red). Nuclear staining by DAPI is shown in blue. Magnifications: 40x, scale bars: 20 µm.\nFigure 3 Identification of the receptor for RMS-P3. (A) Alanine-scan of the RMS-P3 sequence. RMS-P3 was mutated by replacing each amino acid residue with alanine (codon GCT). All phage mutants were tested individually for binding to RD cells in vitro. Mutated residues are indicated in bold. Phage binding was quantified over non-recombinant T7 and compared to the binding of wild type phage RMS-P3. Depicted are mean values ± SD of three independent experiments. […] (B) FITC-RMS-P3/RR and FITC-RMS-P3/AA distribution in RD xenograft mice. After tail vein injection of both FITC-RMS-P3/RR or control peptide RMS-P3/AA and circulation of 10 min, mice were perfused, tumors and control organs were dissected and FITC-peptide distribution (green) was evaluated in cryosections under fluorescence microscopy. Blood endothelial stainings (CD31 and MECA32) are shown in red, nuclear staining in blue (DAPI). Magnification: 20x, scale bar 50 µm. (C) Expression of proprotein convertases (PCs) measured by microarray profiling of 9 RMS cell lines and 30 RMS biopsy samples. Expression of PCs recognizing the cleavage site R(X)(R/K)(R/K) were considered. Each cell line or biopsy is represented by one data point. (D) Furin expression in different cell lines. Normal myoblasts (SkMC-c), fibroblasts (MRC-5), RMS cell lines (RD, Rh4, Rh30), furin-deficient colorectal carcinoma cells (LoVo) and furin-positive breast carcinoma cells (MBA-MB 231) were tested for furin expression by qRT-PCR (upper graph). […] Western blot (lower panels). Immature membrane-bound furin was detected at 103 kD, mature furin at 97 kD. PCNA was used as loading control.\nFigure 6 FITC-RMS-P3/RR and FITC-RMS-P3/AA distribution in mice bearing RD xenografts. Peptides were injected i.v. and after circulation the mice were perfused, tumors and control organs were removed and peptide distribution was evaluated on cryosections by fluorescence microscopy. Depicted are overlay images (B, upper left panel) and single channel pictures. FITC-peptide stainings (green), either furin or endothelial stainings (CD31, MECA32) in red and cell nuclei in blue (DAPI) are shown. Magnification: 40x, scale bars 50 µm.\nSupplementary file pone.0010445.s002.tif: Figure S2 Subcellular localization of FITC-RMS-P3 peptide. (A, B) FITC-RMS-P3/RR cell surface and intracellular localization. RD cells were incubated with 100 nM FITC-RMS-P3 peptide in vitro for 30 min at 4°C (A) or 37°C (B), respectively. Fixed cells were stained with undiluted 5.1H11 hybridoma supernatant against the human muscle-specific cell surface antigen N-CAM (red). A secondary rabbit anti-mouse Cy3 antibody (1∶300, Invitrogen) was used for detection. […] Cell nuclei were visualized with DAPI. Nuclei are indicated in grey. Magnification: 63x, scale bars: 20 µm. […]"}, "MRC-5-FUR cells": {"test_system": "MRC-5-FUR cells", "assay": "FITC-RMS-P3/RR binding to furin-transfected fibroblasts", "assay_type": "cell-based", "details": "100 nM, 1h at RT", "experimental": "Figure 4 RMS-P3/RR phage binding correlates with furin expression levels. (A) Binding of phage RMS-P3/RR to untransfected (MRC-5), furin-overexpressing (MRC-FUR) and empty vector transfected MRC-5 fibroblasts (MRC-EV) was tested in vitro. Phage binding was quantified over control T7. Results of three independent experiments ± SD are shown. Western blot of the same samples for furin expression and PCNA as loading control (A, lower panels) (B) Micrographs of MRC-5 fibroblasts (upper row) and MRC-5-FUR (lower row) cells incubated with 100 nM FITC-RMS-P3/RR (green) for 1h at RT, fixed and stained with the anti-furin-antibody Mon-152 (red). Nuclei are visualized by DAPI staining (blue). Yellow indicates overlap of the two stainings. Magnification: 40x; scale bars: 20 µm. (C) Inhibition of furin maturation in α1-PDX-transfected RD cells reduces phage binding. Phage RMS-P3/RR binding to untransfected RD, furin-inhibited RD-PDX and empty-vector transfected RD-EV cells was determined over non-recombinant T7 in three independent experiments (means ± SD). Expression of the inhibitor α1-PDX was confirmed by western blotting using 100 µg cell extract with antiserum against α1AT (C, lower panels). (D) Effect of the specific PC-inhibitor Dec-RVKR-cmk on phage RMS-P3/RR binding. […] Phage binding was calculated over T7. […]"}, "RD cells [3]": {"test_system": "RD cells", "assay": "competition of phage RMS-P3/RR binding by Dec-RVKR-cmk", "assay_type": "cell-based", "experimental": "Figure 4 RMS-P3/RR phage binding correlates with furin expression levels. (A) Binding of phage RMS-P3/RR to untransfected (MRC-5), furin-overexpressing (MRC-FUR) and empty vector transfected MRC-5 fibroblasts (MRC-EV) was tested in vitro. Phage binding was quantified over control T7. Results of three independent experiments ± SD are shown. Western blot of the same samples for furin expression and PCNA as loading control (A, lower panels) (B) Micrographs of MRC-5 fibroblasts (upper row) and MRC-5-FUR (lower row) cells incubated with 100 nM FITC-RMS-P3/RR (green) for 1h at RT, fixed and stained with the anti-furin-antibody Mon-152 (red). Nuclei are visualized by DAPI staining (blue). Yellow indicates overlap of the two stainings. Magnification: 40x; scale bars: 20 µm. (C) Inhibition of furin maturation in α1-PDX-transfected RD cells reduces phage binding. Phage RMS-P3/RR binding to untransfected RD, furin-inhibited RD-PDX and empty-vector transfected RD-EV cells was determined over non-recombinant T7 in three independent experiments (means ± SD). Expression of the inhibitor α1-PDX was confirmed by western blotting using 100 µg cell extract with antiserum against α1AT (C, lower panels). (D) Effect of the specific PC-inhibitor Dec-RVKR-cmk on phage RMS-P3/RR binding. Competition was performed with increasing concentrations of Dec-RVKR-cmk and constant amounts of phage (10^9 pfu). Phage binding was calculated over T7.\nas §1"}}, "note": "Positions of bridges follow the written chain, without caps; N, C: chain ends. No end group written: not given here. *: point of attachment. FITC = O=C1OC2(c3ccc(O)cc3Oc3cc(O)ccc32)c2ccc(NC(=S)*)cc21", "data": [{"substance": "CMGTINTRTKKC (disulfide 1-12 (inferred)) [RMS-P3]", "values": [{"measurement": "IC50", "setting": "RD cells [1]; RD cells, 10^6, peptide preincubated 30 min, then phage 10^9 pfu 1 h at RT, three independent experiments, read-out: Half-maximal inhibition (IC50) of phage RMS-P3 binding", "result": "~0.1", "unit": "µM"}, {"measurement": "regression slope b of phage RMS-P3 binding versus peptide concentration", "setting": "RD cells [1]", "result": "−17.5"}, {"measurement": "phage RMS-P3 binding remaining", "setting": "RD cells [1]; peptide at highest concentration tested (10 µM), percentage of maximal phage binding", "result": 7.5, "unit": "%"}]}, {"substance": "Doxorubicin-succinyl-GG-CMGTINTRTRRC (disulfide) [Dox-RMS-P3/RR]", "values": [{"measurement": "tumor size compared to Dox alone, Dox and peptide, peptide alone or vehicle", "setting": "RD xenografts; 10 µg doxorubicin equivalent/week i.v., student's t-test, p<0.05", "result": "significantly smaller"}, {"measurement": "increase in therapeutic efficacy compared to doxorubicin treatment alone", "setting": "RD xenografts; RMS in mice", "result": "two-fold"}, {"measurement": "delay in tumor growth compared to untargeted drug delivery", "setting": "RD xenografts; weekly tail vein injections, 30 days", "result": "significant delay in tumor growth"}]}, {"substance": "FITC-RMS-P3/RR ({FITC}-GGCMGTINTRTRRC; also: cyclic peptide, ring type and places not given here)", "values": [{"measurement": "peptide distribution to muscle", "setting": "[2]; 10 min circulation", "result": "not in control organs"}, {"measurement": "peptide uptake in kidney", "setting": "[2]; 10 min circulation", "result": "not in control organs"}, {"measurement": "peptide accumulation in tumor", "setting": "[2]; 10 min circulation, cryosections", "result": "Accumulation"}, {"measurement": "peptide accumulation in tumor", "setting": "[2]; 10 min circulation, cryosections, listed as FITC-labeled RMS-P3/RR", "result": "strong peptide fluorescence"}, {"measurement": "colocalization with furin around blood vessels in tumor", "setting": "[2]; cryosections", "result": "furin colocalized with peptide RMS-P3/RR fluorescence"}, {"measurement": "penetration into the tumor", "setting": "[2]; around blood vessels, cryosections", "result": "about 30 µm"}, {"measurement": "colocalization of furin and FITC-peptide", "setting": "MRC-5-FUR cells; anti-furin-antibody Mon-152", "result": "clear colocalization"}, {"measurement": "FITC-peptide binding to MRC-5-FUR cells", "setting": "MRC-5-FUR cells; in contrast to untransfected cells", "result": "strong peptide binding"}]}, {"substance": "CSPNNTRRPNKC (disulfide 1-12 (inferred)) [RMS-Pctrl]", "values": [{"measurement": "effect on phage RMS-P3 binding", "setting": "RD cells [1]; increasing peptide concentrations", "result": "no effect"}, {"measurement": "regression slope b of phage RMS-P3 binding versus peptide concentration", "setting": "RD cells [1]", "result": 0.055}]}, {"substance": "decanoyl-Arg-Val-Lys-Arg-chloromethylketone [Dec-RVKR-cmk]", "values": [{"measurement": "phage RMS-P3/RR binding in presence of inhibitor", "setting": "RD cells [3]; 1 µM Dec-RVKR-cmk, RD cells, 30 min preincubation, phage 10^9 pfu 1 h", "result": "half-maximal"}, {"measurement": "effect on binding of control phage RMS-P3/AA", "setting": "RD cells [3]; Dec-RVKR-cmk, RD cells", "result": "remained unaffected"}, {"measurement": "regression slope b of phage RMS-P3/RR binding versus Dec-RVKR-cmk concentration", "setting": "RD cells [3]; least-squares regression, N = 18, r^2 = 0.883, p<0.0001", "result": "−17.9"}]}]}
